# Test results published in patent US10751351B2, “Medicament for treatment of diabetic foot infections” (Debiopharm International S.A., priority 2016, dated 2020).
# Like-named read-outs stand apart in the source and are kept apart here. Marks after values point to notes of the source that are not given here.
# Key:
# MRSA clinical strain [1] = test: Staphylococcus aureus-induced acute osteomyelitis in a rabbit model (2), dose range; format: in vivo
# Method: (§1) MIC assays were performed by broth microdilution using CLSI guidelines. OM was induced in rabbit through inoculation of the knee with 10^8 CFU/mL of a MRSA clinical strain after bone trepanation. On day 3 post-inoculation, surgical debridement was performed to mimic the clinical procedure. Samples of femoral red bone marrow (BM) and epiphyseal spongy bone were removed and bacterial counts corresponding to day 3 after infection were determined. Treatments were started after 3 days of infection and lasted for 4 days with compound A at the dose level of 12.5, 6.25, 1.6, 0.4 or 0.1 mg/kg BID iv (4 h infusion) or its vehicle BID iv. On day 7 post-inoculation, the bacterial counts were determined in BM and bone samples. The treatment efficacy was assessed by comparing the bacterial counts before (day 3 after infection) and after (day 7 after infection) the antibacterial therapy.
# MRSA clinical strain [2] = format: in vivo, rabbit; conditions: 4 days of treatment; for bacterial counts in BM and bone, result in words: versus vehicle; for Mean ± SD Δlog10 CFU/g of tissue (day 3-day 7), Bone marrow / Mean ± SD Δlog10 CFU/g of tissue (day 3-day 7), Epiphyseal bone: Compound A 12.5 mg/kg BID iv, vancomycin 100 mg/kg once daily constant iv infusion
# Method: (§2) MIC assays were performed by broth microdilution using CLSI guidelines. Osteomyelitis (OM) was induced in rabbit through inoculation of the knee with 10^8 CFU of an MRSA clinical strain after bone trepanation. On day 3 post-inoculation, surgical debridement was performed to mimic the clinical procedure. Samples of femoral red bone marrow (BM) and epiphyseal spongy bone were removed and bacterial counts were determined.
# On day 7 post-inoculation, the bacterial counts were determined in BM and bone samples. The treatment efficacy was assessed by comparing the bacterial counts before (day 3 after infection) and after (day 7 after infection) the antibacterial therapy. Infected and non-infected BM, bone and plasma samples were collected for quantification of Compound B by LC-MS/MS.
# [3] = system: Panton-Valentine leukocidin (PVL)-positive MRSA strain; test: Staphylococcus aureus-induced acute osteomyelitis in a rat model; format: in vivo; conditions: for mean reduction in bacterial burden compared to vehicle controls: after 3 weeks of treatment; for mean reduction in bacterial burden compared to vehicle controls / Bone cultures found negative (rats): Compound A 100 mg/kg po BID, vancomycin 100 mg/kg ip QD, fosfomycin 75 mg/kg ip QD; for Bone cultures found negative (rats): day 28, after 3 weeks of treatment
# Method: (§3) Minimum inhibitory concentration (MIC) assays were performed by broth microdilution using CLSI guidelines against 20 MRSA strains isolated from bone infections. Experimental osteomyelitis was induced through inoculation of the tibial medullary cavity with 7 log10 colony-forming unit (CFU) of a Panton-Valentine leukocidin (PVL)-positive MRSA strain on day 1. Animals were randomly assigned to the following treatment groups: Compound A 100 mg/kg po BID, vancomycin 100 mg/kg ip QD, fosfomycin 75 mg/kg ip QD and vehicle po BID for 3 weeks starting on day 8 post infection (n=6/group). CFU were enumerated in bone homogenates prior to treatment on day 8 in control animals and at the end of treatment period on day 28. Infected and non-infected bone and plasma samples were collected for quantification of Compound B by LC-MS/MS.
# human PDE3A = human PDE3A (Homo sapiens, UniProt Q14432); test: PDE3 inhibition assay, Caliper mobility shift (PDE3A); format: biochemical; conditions: iFL-cAMP substrate, read-out: absolute IC50 PDE3A
# human PDE3A, sequence (Q14432 whole entry): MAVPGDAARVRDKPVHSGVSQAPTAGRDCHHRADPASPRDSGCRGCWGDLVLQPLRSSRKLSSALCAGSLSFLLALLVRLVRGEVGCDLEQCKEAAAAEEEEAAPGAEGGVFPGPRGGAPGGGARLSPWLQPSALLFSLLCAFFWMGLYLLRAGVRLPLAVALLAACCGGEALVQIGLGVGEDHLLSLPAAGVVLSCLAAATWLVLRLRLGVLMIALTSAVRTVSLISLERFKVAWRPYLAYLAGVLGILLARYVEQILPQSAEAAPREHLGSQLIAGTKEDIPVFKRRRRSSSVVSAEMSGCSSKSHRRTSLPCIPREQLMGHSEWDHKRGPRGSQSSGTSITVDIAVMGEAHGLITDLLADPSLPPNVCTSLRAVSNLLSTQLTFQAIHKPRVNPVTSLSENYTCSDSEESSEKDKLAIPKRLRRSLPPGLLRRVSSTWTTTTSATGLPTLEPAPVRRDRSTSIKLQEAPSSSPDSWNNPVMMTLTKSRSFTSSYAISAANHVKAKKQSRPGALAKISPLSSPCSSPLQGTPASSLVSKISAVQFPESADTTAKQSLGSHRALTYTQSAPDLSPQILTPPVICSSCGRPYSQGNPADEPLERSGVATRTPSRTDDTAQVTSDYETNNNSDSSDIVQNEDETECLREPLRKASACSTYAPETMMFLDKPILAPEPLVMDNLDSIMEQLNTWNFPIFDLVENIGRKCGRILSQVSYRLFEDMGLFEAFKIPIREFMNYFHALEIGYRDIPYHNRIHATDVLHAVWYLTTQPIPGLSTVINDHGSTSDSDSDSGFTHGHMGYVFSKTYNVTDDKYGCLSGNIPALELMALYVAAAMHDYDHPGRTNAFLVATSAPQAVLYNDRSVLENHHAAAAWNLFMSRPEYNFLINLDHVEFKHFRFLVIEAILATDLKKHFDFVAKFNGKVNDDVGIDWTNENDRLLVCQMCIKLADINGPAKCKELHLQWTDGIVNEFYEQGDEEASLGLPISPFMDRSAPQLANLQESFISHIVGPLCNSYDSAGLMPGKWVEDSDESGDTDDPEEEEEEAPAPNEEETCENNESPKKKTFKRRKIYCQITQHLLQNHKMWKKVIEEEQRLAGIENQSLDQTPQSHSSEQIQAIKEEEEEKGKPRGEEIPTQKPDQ
# Method: (§4) The inhibitory activity of Compound B was assessed against human PDE3A and PDE3B and was compared to cilostazol (a PDE3 inhibitor) in the enzymatic phosphodiesterase assay using Caliper mobility shift assay (2. Card A1, Caldwell C, Min H et al: High-throughput biochemical kinase selectivity assays: panel development and screening applications. J Biomol Screen. (2009); 14(1):31-42.). This method is based on change in charge and electrophoretic separation of product from fluorescently labeled substrate iFL-cAMP. Assays were performed in a 26 μL volume in a 384 well plate. iFL-cAMP substrate was incubated, off-chip, in reaction buffer (100 mM HEPES (pH 7.5), 5 mM MgCl2 and 0.002% Brij35) in the presence of active enzymes (PDE3A and PDE3B) and test compounds at various concentrations. After incubation period, the reaction products and remaining substrate were measured. Detection was performed using EZ reader II. The concentration of compound inducing 50% of the response (IC50) was determined from each individual concentration-response curve using variable slope fits with Prism software (Graph Pad, San Diego, Calif., USA).
# human PDE3B = human PDE3B (Homo sapiens, UniProt Q13370); test: PDE3 inhibition assay, Caliper mobility shift (PDE3B); format: biochemical; conditions: iFL-cAMP substrate, read-out: absolute IC50 PDE3B
# human PDE3B, sequence (Q13370 whole entry): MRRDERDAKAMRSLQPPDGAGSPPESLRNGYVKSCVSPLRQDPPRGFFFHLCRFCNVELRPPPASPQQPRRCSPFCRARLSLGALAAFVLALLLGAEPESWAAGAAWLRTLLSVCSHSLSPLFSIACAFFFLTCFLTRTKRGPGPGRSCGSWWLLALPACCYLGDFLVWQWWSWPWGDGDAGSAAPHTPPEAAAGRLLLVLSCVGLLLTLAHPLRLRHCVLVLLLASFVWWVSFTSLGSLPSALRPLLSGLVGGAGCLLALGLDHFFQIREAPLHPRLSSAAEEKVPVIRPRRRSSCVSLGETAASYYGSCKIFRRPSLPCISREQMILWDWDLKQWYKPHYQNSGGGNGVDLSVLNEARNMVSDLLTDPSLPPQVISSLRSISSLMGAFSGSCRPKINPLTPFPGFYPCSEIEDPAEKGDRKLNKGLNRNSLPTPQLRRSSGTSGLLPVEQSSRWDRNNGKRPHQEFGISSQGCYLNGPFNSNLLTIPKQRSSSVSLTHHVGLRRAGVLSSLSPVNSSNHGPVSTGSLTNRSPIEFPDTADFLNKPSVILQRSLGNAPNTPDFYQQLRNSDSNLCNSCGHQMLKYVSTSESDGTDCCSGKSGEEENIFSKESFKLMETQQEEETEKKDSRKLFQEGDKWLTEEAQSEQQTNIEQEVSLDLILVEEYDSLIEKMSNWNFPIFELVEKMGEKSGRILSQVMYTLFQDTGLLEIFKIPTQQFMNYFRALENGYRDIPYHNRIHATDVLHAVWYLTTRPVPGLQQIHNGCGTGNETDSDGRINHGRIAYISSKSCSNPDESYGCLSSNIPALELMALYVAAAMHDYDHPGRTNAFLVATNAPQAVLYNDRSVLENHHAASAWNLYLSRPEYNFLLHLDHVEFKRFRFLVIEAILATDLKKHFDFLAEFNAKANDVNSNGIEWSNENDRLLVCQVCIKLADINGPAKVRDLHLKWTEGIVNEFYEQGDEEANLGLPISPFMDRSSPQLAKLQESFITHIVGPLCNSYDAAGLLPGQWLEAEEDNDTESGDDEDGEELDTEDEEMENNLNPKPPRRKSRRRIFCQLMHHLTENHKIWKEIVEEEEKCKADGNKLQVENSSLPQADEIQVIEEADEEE
# Method: as §4
# MRSA clinical strain [4] = test: MIC by broth microdilution against the MRSA isolate (Example 5); format: cell-based; conditions: Staphylococcus aureus, Example 5 isolate
# Method: as §1
# MRSA clinical strain [5] = test: MIC by broth microdilution against the MRSA isolate (Example 4); format: cell-based; conditions: Staphylococcus aureus, read-out: MIC for the MRSA isolate
# Method: as §2
# [6] = Bone and plasma quantification of Compound B by LC-MS/MS in rat osteomyelitis model; conditions: in vivo, Compound A 100 mg/kg po BID, no difference between infected and non-infected tibias, read-out: bone:plasma ratio of Compound B
# Method: as §3
# [7] = system: rabbit saphenous vein rings; test: In vitro vascular relaxation test in rabbit saphenous vein rings pre-contracted with noradrenaline; format: cell-based; conditions: for EC50: Oryctolagus cuniculus, saphenous vein rings pre-contracted with 1 μM noradrenaline, read-out: pD2 value (−log EC50) (converted); for relaxation of 1 μM noradrenaline pre-contracted preparations: DMSO-treated group −29±11%
# Method: The vascular relaxing effects of Compound B were evaluated using isolated rabbit saphenous venous tissue. Rabbits were sacrificed by a blow to the head followed by a cervical dislocation and exsanguination. A segment of the saphenous vein was carefully excised. Vein was cleaned of all fat and connective tissue and cut into 2.5 mm long rings. The rings were then mounted horizontally in 20-ml organ baths filled with Krebs's solution maintained at 37.7±0.5° C. and gassed with a mixture of 95% O2 and 5% CO2. Krebs's solution was made up as follows (mM): NaCl: 118.0/KCl: 5.0/CaCl2): 2.6/MgSO4 (7H2O): 1.2/NaHCO3: 24.9/KH2PO4: 1.2/glucose: 10.0. pH is 7.40±0.05. The rings were allowed to equilibrate for 60 minutes at an optimal resting tension of 1 g. Contractile tensions were measured using an isometric force transducer and signals were analyzed using a specialized software (IOX version 1.554, EMKA Technologies, Paris, France). Tissue viability was verified using three challenges to 80 mM KCl. The maximal contraction was reached after 3 challenges of KCl. Endothelium integrity was verified on the basis of the relaxation produced by 1 μM acetylcholine in rings precontracted with 1 μM noradrenaline. All experiments were performed on […] rings with endothelium. The method evaluated the effect of the test substance in pre-contracted preparations. The preparations were pre-contracted with an agonist (Noradrenaline at 1 μM) until a stable tonic contraction was reached. Six cumulative concentrations of the test or comparison substances were then added into the bath and relaxations were recorded to plot a concentration-response curve. Three preparations were exposed to DMSO, 0.1% over 6 consecutive periods for comparison to Compound B and cilostazol. Four preparations (obtained from 4 animals) were studied for the test and comparison substances. Three preparations were studied for the DMSO-treated group. The relaxation response to test substance was expressed as the percentage of inhibition of agonist-induced pre-contraction. The concentration of agonist inducing 50% of the maximum response (EC50) was determined from each individual concentration-response curve using linear regression. For each ring, the agonist potency (pD2) was calculated as −log (EC50).
# [8] = 0.1 mg/kg BID iv, 4 days of treatment, 1 animal
# [9] = 0.4 mg/kg BID iv, 4 days of treatment
# [10] = 1.6 mg/kg BID iv, 4 days of treatment
# [11] = 6.25 mg/kg BID iv, 4 days of treatment
# [12] = 12.5 mg/kg BID iv, 4 days of treatment
smiles,measurement,setting,value
"Cc1c(CN(C)C(=O)/C=C/c2cnc3c(c2)CCC(=O)N3COP(=O)(O)O)oc2ccccc12 [Compound A, {6-[(1E)-3-{methyl[(3-methyl-1-benzofuran-2-yl)methyl]amino}-3-oxoprop-1-en-1-yl]-2-oxo-3,4-dihydro-1,8-naphthyridin-1(2H)-yl}methyl dihydrogen phosphate]","Δlog10 CFU/g of tissue (day 3-day 7), Bone marrow",MRSA clinical strain [1]; [8],−0.74 log10 CFU/g of tissue
same,"Δlog10 CFU/g of tissue (day 3-day 7), Epiphyseal bone",MRSA clinical strain [1]; [8],−1.02 log10 CFU/g of tissue
same,"Mean ± SD Δlog10 CFU/g of tissue (day 3-day 7), Bone marrow",MRSA clinical strain [1]; [9],−2.03 ± 1.11 ^a log10 CFU/g of tissue
same,"Mean ± SD Δlog10 CFU/g of tissue (day 3-day 7), Epiphyseal bone",MRSA clinical strain [1]; [9],−1.23 ± 0.93 ^b log10 CFU/g of tissue
same,"Mean ± SD Δlog10 CFU/g of tissue (day 3-day 7), Bone marrow",MRSA clinical strain [1]; [10],−3.18 ± 0.74 ^a log10 CFU/g of tissue
same,"Mean ± SD Δlog10 CFU/g of tissue (day 3-day 7), Epiphyseal bone",MRSA clinical strain [1]; [10],−1.53 ± 1.53 ^a log10 CFU/g of tissue
same,"Mean ± SD Δlog10 CFU/g of tissue (day 3-day 7), Bone marrow",MRSA clinical strain [1]; [11],−3.45 ± 1.53 ^a log10 CFU/g of tissue
same,"Mean ± SD Δlog10 CFU/g of tissue (day 3-day 7), Epiphyseal bone",MRSA clinical strain [1]; [11],−2.17 ± 0.72 ^a log10 CFU/g of tissue
same,"bacterial titers in BM and bone, result in words",MRSA clinical strain [1]; 12.5 mg/kg,significant reduction in bacterial titers
same,"Mean ± SD Δlog10 CFU/g of tissue (day 3-day 7), Bone marrow",MRSA clinical strain [1]; [12],−3.42 ± 0.96 ^a log10 CFU/g of tissue
same,"Mean ± SD Δlog10 CFU/g of tissue (day 3-day 7), Epiphyseal bone",MRSA clinical strain [1]; [12],−1.76 ± 0.74 ^a log10 CFU/g of tissue
same,"bacterial counts in BM and bone, result in words","MRSA clinical strain [1]; lower doses 6.25, 1.6, 0.4 and 0.1 mg/kg IV BID, down to the 0.4 mg/kg dose",significant reduction in bacterial counts
same,"bacterial counts in BM and bone, result in words",MRSA clinical strain [2],significant anti-staphylococcal activity
same,"Mean ± SD Δlog10 CFU/g of tissue (day 3-day 7), Bone marrow",MRSA clinical strain [2],−3.62 ± 0.67 log10 CFU/g of tissue
same,"Mean ± SD Δlog10 CFU/g of tissue (day 3-day 7), Epiphyseal bone",MRSA clinical strain [2],−2.52 ± 1.25 log10 CFU/g of tissue
same,mean reduction in bacterial burden compared to vehicle controls,[3],2.8 log10 CFU/g of bone
same,development of resistance,[3]; after the 3-week treatment period,No development of resistance
same,Bone cultures found negative (rats),[3],2/6
"Cc1c(CN(C)C(=O)/C=C/c2cnc3c(c2)CCC(=O)N3)oc2ccccc12 [Compound B, (E)-N-methyl-N-((3-methylbenzofuran-2-yl)methyl)-3-(7-oxo-5,6,7,8-tetrahydro-1,8-naphthyridin-3-yl)acrylamide]",IC50,human PDE3A,600 nM
same,IC50,human PDE3B,703 nM
same,MIC,MRSA clinical strain [4],4 ng/mL
same,MIC,MRSA clinical strain [5]; Example 4 isolate,0.004 µg/mL
same,Kp,[6],0.06 to 0.27
same,development of resistance,MRSA clinical strain [1]; after the 4-day treatment period,No development of resistance
same,EC50,[7],1410 nM
same,relaxation of 1 μM noradrenaline pre-contracted preparations,[7]; at 10 μM,−69±9%
same,relaxant effects compared to vehicle control group (DMSO),[7]; at 3 and 10 μM,concentration-dependently relaxed
same,relaxant effects compared to vehicle control group (DMSO),[7]; from 0.03 to 1 μM,no relaxant effects
"O=C1CCc2cc(OCCCCc3nnnn3C3CCCCC3)ccc2N1 [cilostazol, reference compound]",IC50,human PDE3A,416 nM
same,IC50,human PDE3B,912 nM
same,EC50,[7],832 nM
same,relaxation of 1 μM noradrenaline pre-contracted preparations,[7]; at 100 μM,−70±7%
same,relaxant effects compared to vehicle control group (DMSO),[7]; at 10 and 100 μM,concentration-dependently relaxed
same,relaxant effects compared to vehicle control group (DMSO),[7]; from 0.001 to 1 μM,no relaxant effects
C[C@@H]1O[C@@H]1P(=O)(O)O [fosfomycin],mean reduction in bacterial burden compared to vehicle controls,[3],3.3 log10 CFU/g of bone
same,Bone cultures found negative (rats),[3],2/6
"CN[C@H](CC(C)C)C(=O)N[C@H]1C(=O)N[C@@H](CC(N)=O)C(=O)N[C@H]2C(=O)N[C@H]3C(=O)N[C@H](C(=O)N[C@H](C(=O)O)c4cc(O)cc(O)c4-c4cc3ccc4O)[C@H](O)c3ccc(c(Cl)c3)Oc3cc2cc(c3O[C@@H]2O[C@H](CO)[C@@H](O)[C@H](O)[C@H]2O[C@H]2C[C@](C)(N)[C@H](O)[C@H](C)O2)Oc2ccc(cc2Cl)[C@H]1O [vancomycin, reference compound]",MIC,MRSA clinical strain [5],1 µg/mL
same,"bacterial counts in BM and bone, result in words",MRSA clinical strain [2],No significant difference
same,"Mean ± SD Δlog10 CFU/g of tissue (day 3-day 7), Bone marrow",MRSA clinical strain [2],−1.05 ± 1.30 log10 CFU/g of tissue
same,"Mean ± SD Δlog10 CFU/g of tissue (day 3-day 7), Epiphyseal bone",MRSA clinical strain [2],−0.49 ± 0.65 log10 CFU/g of tissue
same,mean reduction in bacterial burden compared to vehicle controls,[3],no statistically significant reduction
same,Bone cultures found negative (rats),[3],0/6
